# Results as given in paper PMC9743094, “Synthesis and Evaluation of Polymyxins Bearing Reductively Labile Disulfide-Linked Lipids” (Journal of Medicinal Chemistry, 2022).
# Positions of bridges follow the written chain, without caps; N, C: chain ends. Non-standard residues stand in square brackets, D forms with d. Residues, ends and D or L forms follow the SMILES beside them. *: point of attachment. S(2-cyclohexylethyl) = C1CCC(CCS*)CC1; S(3-Methylbutyl) = CC(C)CCS*; Dab = NCC[C@H](N)C(=O)O; X1 = CC(C)CCCCS*
# Legend:
# [1] = tested on: A. baumannii (ATCC 19606); format: cell-based; conditions: ATCC 19606
# Description: (§1) Minimum inhibitory concentrations (MICs) on relevant Gram-negative bacteria were determined by broth microdilution, in accordance with CLSI guidelines. Indicated bacteria were taken from glycerol stocks and incubated overnight on blood agar at 37 °C. Well-isolated colonies were taken, suspended in TSB (5 mL), and grown to an OD600 of 0.5. Compounds to be tested were dissolved in DMSO (6.4 mg/mL), diluted in cation-adjusted Mueller–Hinton Broth (CAMHB) (12.5 and 20 μg/mL Mg^2+ and Ca^2+, respectively), and diluted serially on polypropylene microtiter plates. To the diluted compounds (50 μL per well) was added 50 μL of relevant bacterial suspension, to yield a final concentration of 10^6 CFU/mL. Plates were covered by adhesive gas-permeable membranes and incubated at 37 °C. MIC was read out as the lowest concentration that inhibited visual bacterial growth. Shown values are consistent results from at least duplicate experiments.
# [2] = tested on: E. coli (ATCC 25922); format: cell-based; conditions: ATCC 25922
# Description: as §1
# [3] = tested on: K. pneumoniae (ATCC 13883); format: cell-based; conditions: ATCC 13883
# Description: as §1
# [4] = tested on: P. aeruginosa (ATCC 27853); format: cell-based; conditions: ATCC 27853
# Description: as §1
# [5] = tested on: differentiated conditionally immortalized PTECs (ciPTECs, OAT-1); assay: ciPTEC toxicity assay (PrestoBlue); format: cell-based, human
# Description: ciPTECs (OAT-1) cells,[52],[53] grown to 90–100% confluence, were washed by Hanks’ balanced salt solution (HBSS; Gibco, Life Technologies, Paisley, U.K.) and detached by accutase (4 mL) for 5 min at 37 °C. The cells were then suspended in fresh medium (DMEM/F-12, supplemented with 10% fetal calf serum, insulin (5 μg/mL), transferrin (5 μg/mL), selenium (5 μg/mL) hydrocortisone (35 ng/mL), Epidermal Growth Factor (10 ng/mL) and tri-iodothyronine (40 pg/mL)). Cell density was adjusted to 2.0 × 10^5 cells/mL, of which 100 μL was added to each well of a 96-well plate. The cells were incubated for 24 h at 33 °C, followed by 6 days at 37 °C, in a humidified atmosphere containing 5% (v/v) CO2. The medium was refreshed every second or third day.
# Compounds were dissolved and serially diluted in serum-free medium. Differentiated cells were washed once with HBSS and serially diluted compounds (80 μL/well) were transferred to the ciPTEC-containing plate. Compounds were incubated for 24 h at 37 °C; the cells were washed by HBSS, followed by incubation with 10% PrestoBlue cell viability reagent (Thermo Scientific, Vienna, Austria) in HBSS at 37 °C in the dark. Fluorescence was recorded (excitation: 530 nm, emission: 590 nm). Raw data are corrected for PrestoBlue background fluorescence and reported relative to the no-treatment control (cells with medium only). Viability data were fitted with GraphPad Prism software (version 5.03; GraphPad Software, La Jolla, CA), by nonlinear regression with 0 as bottom constraint. Presented data are based on triplicates.
# Toxicity assessment on PTECs
# Table S1. TC50 values for polymyxin analogues. Toxicity assessment on proximal tubular epithelial cells
# performed using PrestoBlue™ assay. TC50 values are derived after non-linear regression analysis on cell viability
# correspond to data obtained from 2 different batches of cells/analyses on different days. As the value for
# polymyxin B differs 2-fold, values in the manuscript are presented relative to the polymyxin B value.
# Compound TC50 (µ M) Compound TC50 (µ M)
# Polymyxin B 80 Polymyxin B 41
# Figure S3. Representative traces of ciPTECs’ viability after incubation with analogues for 24 hours. Shown data are based on […]
# [6] = tested on: A. baumannii BAA-747; format: cell-based; conditions: BAA-747
# Description: as §1
# (§2) Bacterial strains used for MIC assays and extended MIC assessment
# (§3) Strains: The following strains were obtained from BEI Resources, NIAID, NIH: E. Coli M0072, strain
# (§4) Table S2. […] Values are given in μg/mL.
# (§5) Species Strain ID Resistance Polymyxin B 18b 23a 24a
# [7] = tested on: A. baumannii NRZ-00687; format: cell-based; conditions: NRZ-00687
# Description: as §1, §2, §3, §4, §5
# [8] = tested on: A. baumannii RUH-134; format: cell-based; conditions: RUH-134
# Description: as §1, §2, §3, §4, §5
# [9] = tested on: E. coli 1793; format: cell-based; conditions: 1793
# Description: as §1, §2, §3, §4, §5
# [10] = tested on: E. coli JS136; format: cell-based; conditions: JS136
# Description: as §1, §2, §3, §4, §5
# [11] = tested on: E. coli M0072; format: cell-based; conditions: M0072
# Description: as §1, §2, §3, §4, §5
# [12] = tested on: K. pneumoniae ATCC 29665; format: cell-based; conditions: ATCC 29665
# Description: as §1, §2, §3, §4, §5
# [13] = tested on: K. pneumoniae KP1.53; format: cell-based; conditions: KP1.53
# Description: as §1, §2, §3, §4, §5
# [14] = tested on: K. pneumoniae RC0045; format: cell-based; conditions: RC0045
# Description: as §1, §2, §3, §4, §5
# [15] = tested on: P. aeruginosa 2018-007; format: cell-based; conditions: 2018-007
# Description: as §1, §2, §3, §4, §5
# [16] = tested on: P. aeruginosa 2251; format: cell-based; conditions: 2251
# Description: as §1, §2, §3, §4, §5
# [17] = tested on: P. aeruginosa ATCC 10145; format: cell-based; conditions: ATCC 10145
# Description: as §1, §2, §3, §4, §5
# [18] = tested on: P. aeruginosa M120; format: cell-based; conditions: M120
# Description: as §1, §2, §3, §4, §5
SMILES,MIC A. baumannii (ATCC 19606) [1],MIC E. coli (ATCC 25922) [2],MIC K. pneumoniae (ATCC 13883) [3],MIC P. aeruginosa (ATCC 27853) [4],"TC50, Day 1 [5]","TC50, Day 2 [5]",ciPTEC Toxicity Index (relative to polymyxin B) [5],MIC A. baumannii BAA-747 [6],MIC A. baumannii NRZ-00687 [7],MIC A. baumannii RUH-134 [8],MIC E. coli 1793 [9],MIC E. coli JS136 [10],MIC E. coli M0072 [11],MIC K. pneumoniae ATCC 29665 [12],MIC K. pneumoniae KP1.53 [13],MIC K. pneumoniae RC0045 [14],MIC P. aeruginosa 2018-007 [15],MIC P. aeruginosa 2251 [16],MIC P. aeruginosa ATCC 10145 [17],MIC P. aeruginosa M120 [18]
CC(C)CCSSC[C@@H](NC(=O)CN)C(=O)N[C@H](C(=O)N[C@@H](CCN)C(=O)N[C@H]1CCNC(=O)[C@H]([C@@H](C)O)NC(=O)[C@H](CCN)NC(=O)[C@H](CCN)NC(=O)[C@H](CC(C)C)NC(=O)[C@@H](Cc2ccccc2)NC(=O)[C@H](CCN)NC1=O)[C@@H](C)O [Compound 22b] (H-G[dC](S(3-Methylbutyl))T[Dab][Dab][Dab][dF]L[Dab][Dab]T; lactam 5-C),1 µg/mL,2 µg/mL,0.5 µg/mL,1 µg/mL,163 µM,–,–,–,–,–,–,–,–,–,–,–,–,–,–,–
CC(C)C[C@@H]1NC(=O)[C@@H](Cc2ccccc2)NC(=O)[C@H](CCN)NC(=O)[C@@H](NC(=O)[C@H](CCN)NC(=O)[C@@H](NC(=O)[C@H](CSSCCC2CCCCC2)NC(=O)CN)[C@@H](C)O)CCNC(=O)[C@H]([C@@H](C)O)NC(=O)[C@H](CCN)NC(=O)[C@H](CCN)NC1=O [Compound 23a] (H-GC(S(2-cyclohexylethyl))T[Dab][Dab][Dab][dF]L[Dab][Dab]T; lactam 5-C),1 µg/mL,1 µg/mL,1 µg/mL,1 µg/mL,–,391 µM,9.5,1 µg/mL,0.5 µg/mL,1 µg/mL,0.5 µg/mL,0.5 µg/mL,0.5 µg/mL,1 µg/mL,2 µg/mL,1 µg/mL,8 µg/mL,2 µg/mL,2 µg/mL,2 µg/mL
CC(C)C[C@@H]1NC(=O)[C@@H](Cc2ccccc2)NC(=O)[C@H](CCN)NC(=O)[C@@H](NC(=O)[C@H](CCN)NC(=O)[C@@H](NC(=O)[C@@H](CSSCCC2CCCCC2)NC(=O)CN)[C@@H](C)O)CCNC(=O)[C@H]([C@@H](C)O)NC(=O)[C@H](CCN)NC(=O)[C@H](CCN)NC1=O [Compound 23b] (H-G[dC](S(2-cyclohexylethyl))T[Dab][Dab][Dab][dF]L[Dab][Dab]T; lactam 5-C),1 µg/mL,2 µg/mL,1 µg/mL,1 µg/mL,–,58 µM,–,–,–,–,–,–,–,–,–,–,–,–,–,–
CC(C)CCCCSSC[C@H](NC(=O)CN)C(=O)N[C@H](C(=O)N[C@@H](CCN)C(=O)N[C@H]1CCNC(=O)[C@H]([C@@H](C)O)NC(=O)[C@H](CCN)NC(=O)[C@H](CCN)NC(=O)[C@H](CC(C)C)NC(=O)[C@@H](Cc2ccccc2)NC(=O)[C@H](CCN)NC1=O)[C@@H](C)O [Compound 24a] (H-GC(X1)T[Dab][Dab][Dab][dF]L[Dab][Dab]T; lactam 5-C),1 µg/mL,2 µg/mL,1 µg/mL,2 µg/mL,–,327 µM,8.0,1 µg/mL,1 µg/mL,1 µg/mL,1 µg/mL,1 µg/mL,1 µg/mL,1 µg/mL,2 µg/mL,1 µg/mL,16 µg/mL,2 µg/mL,4 µg/mL,2 µg/mL
